Test results: paper PMC7617869, “Molecular glues that inhibit deubiquitylase activity and inflammatory signaling” (Nature Structural & Molecular Biology, 2025)
Several values for one entry are separate records, joined by “and”; a condition that tells them apart may be missing. Identical values can stand only once.

Target: T1, BRISC (Homo sapiens, UniProt P46736+Q15018+Q9NXR7)
T1 construct: made in house; host or cells: Spodoptera frugiperda (Sf9) insect cells, MultiBac
Experiment: Compound library screening and hit validation (IQF diubiquitin, 1 nM BRISC)
Format: biochemical
Conditions: for BRISC, normalised activity (Ext. 1a): two replicate columns
Protocol: Assays were performed in 384-well black flat-bottom low-flange plates (Corning, 35373) in buffer containing 50 mM HEPES–NaOH pH 7.0, 100 mM NaCl, 1 mg ml^−1 BSA, 1 mM DTT and 0.03% v/v Brij-35. Then, 10 μl of twofold concentrated enzyme stock was dispensed, followed by transfer of 200 nl of compounds (1 mM stock) using a 384-pin tool and a 15-min incubation at room temperature. Then, 10 μl of twofold concentrated substrate stock was added and the reaction was monitored by measuring fluorescence intensity (excitation, 540 nm; emission, 580 nm) after 20-min incubation at room temperature and ~50% of substrate was consumed. Orthogonal assays for verification of H20 and P12 hit compounds using USP2 (100 nM) and trypsin (125 nM) were performed in identical conditions.

O=C(NC1CCNCC1)c1nn(C(=O)c2c(Cl)cccc2Cl)cc1NC(=O)c1c(Cl)cccc1Cl [JMS-175-2]
inhibition of BRISC, hit validation dose response (BRISC 1 nM): selective inhibition
BRISC, normalised activity (Ext. 1a) (log [compound (μM)] 0.1938, listed as H20): 0.7394 and 0.8570
BRISC, normalised activity (Ext. 1a) (log [compound (μM)] 0.4949, listed as H20): 0.6725 and 0.7111
BRISC, normalised activity (Ext. 1a) (log [compound (μM)] 0.7959, listed as H20): 0.4328 and 0.4373
BRISC, normalised activity (Ext. 1a) (log [compound (μM)] 1.0969, listed as H20): 0.3601 and 0.3685
BRISC, normalised activity (Ext. 1a) (log [compound (μM)] 1.3979, listed as H20): 0.2929 and 0.2927
BRISC, normalised activity (Ext. 1a) (log [compound (μM)] 1.6990, listed as H20): 0.2472 and 0.2252
BRISC, normalised activity (Ext. 1a) (log [compound (μM)] 2.0000, listed as H20): 0.2296 and 0.2103
BRISC, normalised activity (Ext. 1a) (log [compound (μM)] 2.3010, listed as H20): 0.2316 and 0.1815
BRISC, normalised activity (Ext. 1a) (log [compound (μM)] -0.1072, listed as H20): 0.9797 and 1.0152
BRISC, normalised activity (Ext. 1a) (log [compound (μM)] -0.4082, listed as H20): 1.0306 and 1.0024
BRISC, normalised activity (Ext. 1a) (log [compound (μM)] -0.7093, listed as H20): 1.0136 and 1.0571
BRISC, normalised activity (Ext. 1a) (log [compound (μM)] -1.7100, normalisation point): 1.0000
normalised V0, Mean (log[compound (μM)] 0.1931): 0.7989
normalised V0, Mean (log[compound (μM)] 0.4942): 0.6361
normalised V0, Mean (log[compound (μM)] 0.7959): 0.4437
normalised V0, Mean (log[compound (μM)] 1.0969): 0.3773
normalised V0, Mean (log[compound (μM)] 1.3979): 0.3064
normalised V0, Mean (log[compound (μM)] 1.6990): 0.2332
normalised V0, Mean (log[compound (μM)] 2.0000): 0.2301
normalised V0, Mean (log[compound (μM)] 2.3010): 0.1610
normalised V0, Mean (log[compound (μM)] -0.1079): 0.9141
normalised V0, Mean (log[compound (μM)] -0.4089): 0.9318
normalised V0, Mean (log[compound (μM)] -0.7212): 0.9518
normalised V0, Mean (log[compound (μM)] -1.7212, normalisation point): 1.0000
